Test results: US9056876B2, “Substituted 1H-pyrazolo[3′,4′,4,5]thieno[2,3-b]pyridin-3-amine analogs as positive allosteric modulators of the muscarinic acetylcholine receptor M4” (VANDERBILT UNIVERSITY, priority 2011, dated 2015)

Target: T1, mAChR M4 (UniProt P08173)
T1 construct: hM1 and hM4 cDNAs were purchased from Missouri S&T cDNA Resource
T1 sequence (P08173 1-479): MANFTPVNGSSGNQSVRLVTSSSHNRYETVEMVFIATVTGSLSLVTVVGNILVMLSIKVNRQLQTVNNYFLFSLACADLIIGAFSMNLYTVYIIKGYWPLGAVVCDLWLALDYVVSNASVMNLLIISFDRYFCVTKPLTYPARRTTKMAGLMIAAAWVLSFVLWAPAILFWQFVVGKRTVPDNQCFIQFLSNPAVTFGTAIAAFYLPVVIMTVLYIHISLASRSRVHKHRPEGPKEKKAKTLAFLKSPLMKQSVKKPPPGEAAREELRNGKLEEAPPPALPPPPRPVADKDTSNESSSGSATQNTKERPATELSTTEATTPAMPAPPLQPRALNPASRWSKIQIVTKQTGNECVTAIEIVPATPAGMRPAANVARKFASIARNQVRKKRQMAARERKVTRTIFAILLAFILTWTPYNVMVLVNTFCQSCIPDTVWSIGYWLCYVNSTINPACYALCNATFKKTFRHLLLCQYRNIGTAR
Experiment: mAChR M4 cell-based functional assay (calcium mobilization, Fluo-4, FDSS)
Settings: for Emax (%)*: % ACh maximum at 30 μM; for pEC50: positive allosteric modulator activity, EC20 acetylcholine response; for pEC50 / EC50: CHO-K1 cells; for EC50: positive allosteric modulator activity: concentration-dependent increase in the EC20 acetylcholine response, >10 μM estimated for low potency (no plateau)
Procedure, shortened: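 CHO-K1 cells stably expressing hM4 or rM4 with chimeric Gqi5, loaded with Fluo-4 AM for 50 min at 37° C. Calcium read on FDSS 6000 over 300 s: compound added at 4 s, acetylcholine EC20 at 144 s and EC80 at 230 s. Agonist, PAM (EC20 increase) and antagonist (EC80 decrease) values fitted by four-parameter logistic.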

Row | Compound | Emax (%)* [%] | pEC50 | EC50 [µM]
1 | CCCn1nc(NCc2ccc(S(C)(=O)=O)cc2)c2sc3nc(C)cc(C)c3c21 [Compound 120, 6,8-dimethyl-N-(4-(methylsulfonyl)benzyl)-1-propyl-1H-pyrazolo[3′,4′:4,5]thieno[2,3-b]pyridin-3-amine] | 59 | <5.00 | > 10
2 | Cc1ccc2c(n1)sc1c(N)n[nH]c12 [Compound 149, 6-methyl-1H-pyrazolo[3′,4′:4,5]thieno[2,3-b]pyridin-3-amine] |  | <5.00 | > 10
3 | Cc1nc2sc3c(NCCC(C)C)n[nH]c3c2c(C)c1Cl [Compound 140, 7-chloro-N-isopentyl-6,8-dimethyl-1H-pyrazolo[3′,4′:4,5]thieno[2,3-b]pyridin-3-amine] |  | <5.00 | > 10
4 | Cc1nc2sc3c(NCc4ccc(F)cc4)n[nH]c3c2c(C)c1Cl [Compound 145, 7-chloro-N-(4-fluorobenzyl)-6,8-dimethyl-1H-pyrazolo[3′,4′:4,5]thieno[2,3-b]pyridin-3-amine] |  | <5.00 | > 10
5 | Cc1cc(C)c2c(n1)sc1c(NC3CCSC3)nn(C)c12 (stereo not shown) [Compound 73, 1,6,8-trimethyl-N-(tetrahydrothiophen-3-yl)-1H-pyrazolo[3′,4′:4,5]thieno[2,3-b]pyridin-3-amine] | 84 | 7.06 | 0.087
6 | COc1ccc(CNc2nn(C)c3c2sc2nc(C)cc(C)c23)c(OC)c1 [Compound 61, N-(2,4-dimethoxybenzyl)-1,6,8-trimethyl-1H-pyrazolo[3′,4′:4,5]thieno[2,3-b]pyridin-3-amine] | 33 | 6.35 | 0.45
7 | Cc1nc2sc3c(NCc4cccs4)nn(C)c3c2c(C)c1Cl [Compound 26, 7-chloro-1,6,8-trimethyl-N-(thiophen-2-ylmethyl)-1H-pyrazolo[3′,4′:4,5]thieno[2,3-b]pyridin-3-amine] | 42 | <5.00 | > 10
8 | Cc1ccc2c(n1)sc1c(NC(=O)c3ccc(Br)cc3)n[nH]c12 [Compound 151, 4-bromo-N-(6-methyl-1H-pyrazolo[3′,4′:4,5]thieno[2,3-b]pyridin-3-yl)benzamide] |  | <5.00 | > 10
9 | COc1ccc(CNc2n[nH]c3c2sc2nc(C)ccc23)cc1 [Compound 72, N-(4-methoxybenzyl)-6-methyl-1H-pyrazolo[3′,4′:4,5]thieno[2,3-b]pyridin-3-amine] | 59 | 5.74 | 1.8
10 | Cc1cc(C)c2c(n1)sc1c(NCc3scnc3C)nn(C)c12 [Compound 93, 1,6,8-trimethyl-N-((4-methylthiazol-5-yl)methyl)-1H-pyrazolo[3′,4′:4,5]thieno[2,3-b]pyridin-3-amine] | 53 | 7.42 | 0.038
11 | Cc1cc(C)c2c(n1)sc1c(NCc3ccc(F)cc3)nn(C)c12 [Compound 39, N-(4-fluorobenzyl)-1,6,8-trimethyl-1H-pyrazolo[3′,4′:4,5]thieno[2,3-b]pyridin-3-amine] | 68 | 6.30 | 0.5
12 | Cc1ccc2c(n1)sc1c(NC(C)C)n[nH]c12 [Compound 45, N-isopropyl-6-methyl-1H-pyrazolo[3′,4′:4,5]thieno[2,3-b]pyridin-3-amine] | 37 | <5.00 | > 10
13 | Cc1nc2sc3c(NCc4ccc(F)c(F)c4)nn(C)c3c2c(C)c1Cl [Compound 27, 7-chloro-N-(3,4-difluorobenzyl)-1,6,8-trimethyl-1H-pyrazolo[3′,4′:4,5]thieno[2,3-b]pyridin-3-amine] | 46 | <5.00 | > 10
14 | Cc1cc(C)c2c(n1)sc1c(NC3CCC(C(F)(F)F)CC3)n[nH]c12 (stereo not shown) [Compound 137, 6,8-dimethyl-N-(4-(trifluoromethyl)cyclohexyl)-1H-pyrazolo[3′,4′:4,5]thieno[2,3-b]pyridin-3-amine] |  | <5.00 | > 10
15 | Cc1cc(C)c2c(n1)sc1c(NCC3CC3)nn(C(=O)OC(C)(C)C)c12 [Compound 8, tert-butyl 3-((cyclopropylmethyl)amino)-6,8-dimethyl-1H-pyrazolo[3′,4′:4,5]thieno[2,3-b]pyridine-1-carboxylate] | 61 | 5.62 | 2.41
16 | Cc1nc2sc3c(NCC4CC4)nn(C)c3c2c(C)c1Cl [Compound 19, 7-chloro-N-(cyclopropylmethyl)-1,6,8-trimethyl-1H-pyrazolo[3′,4′:4,5]thieno[2,3-b]pyridin-3-amine] | 65 | 6.59 | 0.26

Row | Compound | Emax (%)* [%] | pEC50 | EC50 [µM]
17 | Cc1cc(C)c2c(n1)sc1c(NC(C)C)n[nH]c12 [Compound 11, N-isopropyl-6,8-dimethyl-1H-pyrazolo[3′,4′:4,5]thieno[2,3-b]pyridin-3-amine] | 59 | 5.62 | 2.41
18 | Cc1cc(C)c2c(n1)sc1c(NCc3ccccc3)n[nH]c12 [Compound 5, N-benzyl-6,8-dimethyl-1H-pyrazolo[3′,4′:4,5]thieno[2,3-b]pyridin-3-amine] | 58 | 5.97 | 1.07
19 | Cc1cc(C)c2c(n1)sc1c(NC3CCOC3)nn(CCO)c12 (stereo not shown) [Compound 108, 2-(6,8-dimethyl-3-((tetrahydrofuran-3-yl)amino)-1H-pyrazolo[3′,4′:4,5]thieno[2,3-b]pyridin-1-yl)ethanol] | 69 | 6.09 | 0.82
20 | Cc1cc(C)c2c(n1)sc1c(NCc3cccs3)nn(CCO)c12 [Compound 101, 2-(6,8-dimethyl-3-((thiophen-2-ylmethyl)amino)-1H-pyrazolo[3′,4′:4,5]thieno[2,3-b]pyridin-1-yl)ethanol] | 73 | 7.31 | 0.049
21 | Cc1cc(C)c2c(n1)sc1c(NC3CCCC3)n[nH]c12 [Compound 10, N-cyclopentyl-6,8-dimethyl-1H-pyrazolo[3′,4′:4,5]thieno[2,3-b]pyridin-3-amine] | 55 | 5.76 | 1.74
22 | Cc1ccnc2sc3c(NCc4ccco4)nn(C)c3c12 [Compound 71, N-(furan-2-ylmethyl)-1,8-dimethyl-1H-pyrazolo[3′,4′:4,5]thieno[2,3-b]pyridin-3-amine] | 66 | 6.00 | 1
23 | Cc1cc(C)c2c(n1)sc1c(NC3CCCCC3)n[nH]c12 [Compound 132, N-cyclohexyl-6,8-dimethyl-1H-pyrazolo[3′,4′:4,5]thieno[2,3-b]pyridin-3-amine] |  | <5.00 | > 10
24 | Cc1cc(C)c2c(n1)sc1c(NCCC(C)(C)C)n[nH]c12 [Compound 124, N-(3,3-dimethylbutyl)-6,8-dimethyl-1H-pyrazolo[3′,4′:4,5]thieno[2,3-b]pyridin-3-amine] |  | <5.00 | > 10
25 | Cc1nc2sc3c(NCc4cccs4)n[nH]c3c2c(C)c1Cl [Compound 21, 7-chloro-6,8-dimethyl-N-(thiophen-2-ylmethyl)-1H-pyrazolo[3′,4′:4,5]thieno[2,3-b]pyridin-3-amine] | 39 | <5.00 | > 10
26 | Cc1cc(C)c2c(n1)sc1c(NCC(C)C)n[nH]c12 [Compound 37, N-isobutyl-6,8-dimethyl-1H-pyrazolo[3′,4′:4,5]thieno[2,3-b]pyridin-3-amine] | 53 | 5.43 | 3.7
27 | COC(=O)Cn1nc(NCc2ccc(S(C)(=O)=O)cc2)c2sc3nc(C)cc(C)c3c21 [Compound 117, methyl 2-(6,8-dimethyl-3-((4-(methylsulfonyl)benzyl)amino)-1H-pyrazolo[3′,4′:4,5]thieno[2,3-b]pyridin-1-yl)acetate] | 40 | <5.00 | > 10
28 | Cc1cc(C)c2c(n1)sc1c(NCc3cc(C)on3)nn(C)c12 [Compound 97, 1,6,8-trimethyl-N-((5-methylisoxazol-3-yl)methyl)-1H-pyrazolo[3′,4′:4,5]thieno[2,3-b]pyridin-3-amine] | 59 | 5.43 | 3.7
29 | Cc1cc(C)c2c(n1)sc1c(NCC3CCCN3)nn(C)c12 (stereo not shown) [Compound 86, 1,6,8-trimethyl-N-(pyrrolidin-2-ylmethyl)-1H-pyrazolo[3′,4′:4,5]thieno[2,3-b]pyridin-3-amine] | 40 | 5.96 | 1.1
30 | Cc1nc2sc3c(N)n[nH]c3c2c(C)c1Cl [Compound 141, 7-chloro-6,8-dimethyl-1H-pyrazolo[3′,4′:4,5]thieno[2,3-b]pyridin-3-amine] |  | <5.00 | > 10
31 | Cc1cc(C)c2c(n1)sc1c(NC3CN(C(=O)OC(C)(C)C)C3)nn(C)c12 [Compound 106, tert-butyl 3-((1,6,8-trimethyl-1H-pyrazolo[3′,4′:4,5]thieno[2,3-b]pyridin-3-yl)amino)azetidine-1-carboxylate] | 73 | 7.57 | 0.027
